Data reported in patent US7109197B2, “N-phenyl-4-(4-pyridyl)-2-pyrimidineamine derivatives” (Syngenta Crop Protection, Inc., priority 2000, dated 2006).
Where two headings read alike, the source gives them in different places.

Legend:
Puccinia graminis = assay type: in vivo
Phytophthora infestans = assay type: in vivo
[1] = Puccinia graminis on wheat cv. Arina, 0.02% active substance spray (residual) or 0.002% soil (systemic), variant not stated

Structure (SMILES) | B1 activity (Puccinia graminis; [1]) | B1 activity (Puccinia graminis; in vivo) | further results
Clc1cccc(Nc2nccc(-c3ccnc(NC4CCOC4)c3)n2)c1 (centres unmarked) [Compound 2] | + (the activity observed in the corresponding test system is 70% or more) | – | –
CCC(CO)Nc1cc(-c2ccnc(Nc3cccc(Cl)c3)n2)ccn1 (centres unmarked) [Compound 31] | + (the activity observed in the corresponding test system is 70% or more) | – | B2 activity (Phytophthora infestans; Phytophthora infestans on tomato cv. Roter Gnom, 0.02% active substance spray (residual) or 0.002% soil (systemic), variant not stated): + (the activity observed in the corresponding test system is 70% or more)
CC(CO)Nc1cc(-c2ccnc(Nc3cccc(Cl)c3)n2)ccn1 (centres unmarked) [Compound 39] | + (the activity observed in the corresponding test system is 70% or more) | – | –
OCCCNc1cc(-c2ccnc(Nc3cccc(Cl)c3)n2)ccn1 [Compound 46] | + (the activity observed in the corresponding test system is 70% or more) | – | –
Nc1cc(-c2ccnc(Nc3cccc(Cl)c3)n2)ccn1 [Compound 58] | – | + (key: +: the activity observed in the corresponding test system is 70% or more) | –
CCNc1cc(-c2ccnc(Nc3cccc(Cl)c3)n2)ccn1 [Compound 60] | – | + (key: +: the activity observed in the corresponding test system is 70% or more) | –
CNc1cc(-c2ccnc(Nc3cccc(Cl)c3)n2)ccn1 [Compound 64] | – | – | B2 activity (Phytophthora infestans; in vivo): + (key: +: the activity observed in the corresponding test system is 70% or more)
CC(C)Nc1cc(-c2ccnc(Nc3cccc(Cl)c3)n2)ccn1 [Compound 68] | – | + (key: +: the activity observed in the corresponding test system is 70% or more) | –
Clc1cccc(Nc2nccc(-c3ccnc(NCC4CCCO4)c3)n2)c1 (centres unmarked) [Compound 75] | + (the activity observed in the corresponding test system is 70% or more) | – | –
Clc1cccc(Nc2nccc(-c3ccnc(NCCCOc4ncccn4)c3)n2)c1 [Compound 94] | + (the activity observed in the corresponding test system is 70% or more) | – | –
